Laboratory results as given in US20160339074A1, “PHARMACEUTICAL COMPOSITION OF SELECTIVE HCV NS3/4A INHIBITORS” (MERCK SHARP & DOHME CORP., priority 2014, published 2016).
≈ marks a conversion by molar mass, not a printed value. Like-named read-outs stand apart in the source and are kept apart here.

How the values were obtained:
[1] = thermodynamic from solid
[2] = TM/TG ratio (crystallization tendency); format: physicochemical; conditions: based on the most stable crystalline phase known
Aqueous solubility = format: physicochemical; conditions: aqueous medium (not further specified)
log D of Compound 1 = format: physicochemical; conditions: pH 7, pH=7

SMILES: C=C[C@@H]1C[C@]1(NC(=O)[C@@H]1C[C@@H]2CN1C(=O)[C@H](C(C)(C)C)NC(=O)O[C@@H]1C[C@H]1CCCCCc1nc3ccc(OC)cc3nc1O2)C(=O)NS(=O)(=O)C1CC1 [Compound 1, (1aR,5S,8S,10R,22aR)-5-tert-butyl-N-{(1R,2S)-1-[(cyclopropylsulfonyl)carbamoyl]-2-ethenylcyclopropyl}-14-methoxy-3,6-dioxo-1,1a,3,4,5,6,9,10,18,19,20,21,22,22a-tetradecahydro-8H-7,10-methanocyclopropa[18,19][1,10,3,6]dioxadiazacyclononadecino[11,12-b]quinoxaline-8-carboxamide]
- solubility at 2 h ([1]; simulated fasted state intestinal fluid, fassif): 50 µg/mL (≈ 65.2 µM)
- solubility at 2 h ([1]; simulated gastric fluid): < 3 µg/mL
- TM/TG ratio [2]: 1.12
- solubility (Aqueous solubility): < 50 µg/mL
- logD (log D of Compound 1): 3
